Data on 1 molecule can be found in EP0470144B1, “BETA-HYDROXAMATE D-ASPARTIC ACID FOR TREATMENT OF VIRAL INFECTIONS AND TUMOURS” (priority 1989, dated 1990).

Each structure is given as a SMILES string.

The data set has as its system lymphocytes infectés par le virus du SIDA. The data set is described as follows: Growth and cell mortality of HIV-infected lymphocytes. The class given is cell-based. Conditions: 0,5-2 mM DAH; compared with uninfected lymphocytes. The text has this:
Cette inhibition est dose-dépendante. Les essais ont d'abord porté sur des lymphoytes de donneurs sains (Figures 1 et 2). On a pu mettre en évidence cette activité sur deux modèles de réplication du HIV : a) lymphocytes normaux infectés par le virus purifié et b) coculture des lymphocytes des malades du SIDA et de lymphocytes normaux. On a mesuré l'activité transcriptase inverse pendant 22 jours dans le surnageant de cultures cellulaires comme critère de prolifération virale. Le traitement avec le DAH a duré 72 heures de J₀ à J₃ de la manipulation (Figures 3, 4 et 5). […] Par contre, le DAH s'est montré plus toxique vis-à-vis des lymphocytes infectés par le virus du SIDA (Figures 6 et 7).
Effet du DAH sur le taux de croissance de lymphocytes infectés.
(●) absence de DAH (o) concentration en DAH = 0,5 mM (□) concentration en DAH = 1 mM (△) concentration en DAH = 1,5 mM (◇) concentration en DAH = 2 mM • . En abscisses : temps de culture (en jours) • . En ordonnées : taux de croissance.
Effet du DAH sur la mortalité cellulaire de lymphocytes infectés.
(●) absence de DAH (o) concentration en DAH = 0,5 mM (□) concentration en DAH = 1 mM (△) concentration en DAH = 1,5 mM (◇) concentration en DAH = 2 mM • . En abscisses : temps de culture (en jours) • . En ordonnées : proportion de cellules mortes (en %).

With `N[C@@H](CC(=O)NO)C(=O)O` [DAH, D-acide aspartique β-hydroxamate], the “toxicité vis-à-vis des lymphocytes infectés par le virus du SIDA” value is recorded as “plus toxique”.
